Test results: US9187435B2, “Bridged Spiro[2.4]heptane ester derivatives” (Actelion Pharmaceuticals Ltd., priority 2010, dated 2015)
Structures can show the parent of a compound that is named as a salt.

target: T1, human ALX receptor (Homo sapiens, UniProt P25090); assay: Intracellular calcium measurements (FLIPR) in HEK293-hALXR-Gα16 cells, agonistic activity; type: cell-based; details: values normalized to WKYMVm 10 nM
T1 construct: expressed in transfected cells; host or cells: HEK293 (HEK293-hALXR-Gα16)
T1 sequence (P25090 1-351): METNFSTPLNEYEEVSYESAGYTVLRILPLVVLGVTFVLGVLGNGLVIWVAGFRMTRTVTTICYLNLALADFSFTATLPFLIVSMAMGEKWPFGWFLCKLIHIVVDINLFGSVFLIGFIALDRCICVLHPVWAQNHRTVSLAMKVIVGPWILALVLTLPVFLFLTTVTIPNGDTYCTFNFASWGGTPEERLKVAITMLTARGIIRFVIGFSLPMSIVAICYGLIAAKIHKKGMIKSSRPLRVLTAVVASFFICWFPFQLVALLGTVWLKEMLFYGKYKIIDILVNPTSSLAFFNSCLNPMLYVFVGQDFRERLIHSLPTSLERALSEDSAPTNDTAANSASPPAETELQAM
Experimental: The ALX receptor and FPRL2 agonistic activities of the compounds of formula (I) are determined in accordance with the following experimental method.
Intracellular Calcium Measurements:
Cells expressing recombinant human ALX receptor and the G-protein Gα16 (HEK293-hALXR-Gα16) were grown to 80% confluency in Growing Medium (GM). Cells were detached from culture dishes with a cell dissociation buffer (Invitrogen, 13151-014), and collected by centrifugation at 1,000 rpm at rt for 5 min in Assay Buffer (AB) (equal parts of Hank's BSS (Gibco, 14065-049) and DMEM without Phenol Red (Gibco, 11880-028)). After 60 min incubation at 37° C. under 5% CO2 in AB supplemented with 1 μM Fluo-4 (AM) (Invitrogen, F14202), and 20 mM HEPES (Gibco, 15630-056), the cells were washed and resuspended in AB. They were then seeded onto 384-well FLIPR assay plates (Greiner, 781091) at 50,000 cells in 70 μl per well and sedimented by centrifugation at 1,000 rpm for 1 min. Stock solutions of test compounds were made up at a concentration of 10 mM in DMSO, and serially diluted in AB to concentrations required for activation dose response curves. WKYMVm (Phoenix Peptides) was used as a reference agonist. FLIPR384 or FLIPR Tetra instruments (Molecular Devices) were operated according to the manufacturer's standard instructions, adding 4 μl of test compound dissolved at 10 mM in DMSO and diluted prior to the experiment in assay buffer to obtain the desired final concentration. Changes in fluorescence were monitored before and after the addition of test compounds at lex=488 nm and lem=540 nm. Emission peak values above base level after compounds addition were exported after base line subtraction. Values were normalized to high-level control (WKYMVm compound, 10 nM final concentration) after subtraction of the base line value (AB addition).

| EC50 [nM] | SMILES |
| --- | --- |
| 790 | Cc1cc(CNC(=O)[C@H]2[C@H](C(=O)OC3CCCC3)[C@H]3CC[C@@H]2C32CC2)no1 [Example 29, (1S,2R,3R,4R)-[Cyclopentyl 2-(((5-methylisoxazol-3-yl)methyl)carbamoyl)spiro[bicyclo[2.2.1]heptane-7,1′-cyclopropane]-3-carboxylate]] |
| 330 | Cc1cc(CNC(=O)[C@H]2[C@H](C(=O)OCCCN(C)C)[C@H]3CC[C@@H]2C32CC2)no1 [Example 25, (1S,2R,3R,4R)-[1-Dimethylaminoprop-3-yl 2-(((5-methylisoxazol-3-yl)methyl)carbamoyl)spiro[bicyclo[2.2.1]heptane-7,1′-cyclopropane]-3-carboxylate]] |
| 118 | Cc1cc(CNC(=O)[C@H]2[C@H](C(=O)OCC[C@@H]3CCCCN3)[C@H]3CC[C@@H]2C32CC2)no1 [Example 20, (1S,2R,3R,4R)-[(S)-2-(Piperidin-2-yl)ethyl 2-(((5-methylisoxazol-3-yl)methyl)carbamoyl)spiro[bicyclo[2.2.1]heptane-7,1′-cyclopropane]-3-carboxylate]hydrochloride] |
| 52.1 | O=C(OCC1CCNCC1)[C@H]1[C@H](C(=O)NCc2ccc(Br)cc2F)[C@@H]2CC[C@H]1C21CC1 [Example 4, (1S,2R,3R,4R)-[Piperidin-4-ylmethyl 2-((4-bromo-2-fluorobenzyl)carbamoyl)spiro[bicyclo[2.2.1]heptane-7,1′-cyclopropane]-3-carboxylate]hydrochloride] |
| 0.4 | O=C(OCCC1CCNCC1)[C@H]1[C@H](C(=O)Nc2ccc(Br)nc2)[C@@H]2CC[C@H]1C21CC1 [Example 36, (1S,2R,3R,4R)-[2-(Piperidin-4-yl)ethyl 2-((6-bromopyridin-3-yl)carbamoyl)spiro[bicyclo[2.2.1]heptane-7,1′-cyclopropane]-3-carboxylate]hydrochloride] |
| 10.8 | O=C(OCC1CCNCC1)[C@H]1[C@H](C(=O)Nc2ccc(Br)cc2)[C@@H]2CC[C@H]1C21CC1 [Example 50, (1S,2R,3R,4R)-[(Piperidin-4-yl)methyl 2-((4-bromophenyl)carbamoyl)spiro[bicyclo[2.2.1]heptane-7,1′-cyclopropane]-3-carboxylate]hydrochloride] |
| 79 | Cc1cc(CNC(=O)[C@H]2[C@H](C(=O)OCCN3CCNCC3)[C@H]3CC[C@@H]2C32CC2)no1 [Example 63, (1S,2R,3R,4R)-[2-(piperazin-1-yl)ethyl 2-(((5-methylisoxazol-3-yl)methyl)carbamoyl)spiro[bicyclo[2.2.1]heptane-7,1′-cyclopropane]-3-carboxylate]] |
| 1750 | CC(CC(F)(F)CN1CCCC1)OC(=O)[C@H]1[C@H](C(=O)Nc2ccc(Br)nc2)[C@@H]2CC[C@H]1C21CC1 (stereo partly drawn) [Example 77, (1S,2R,3R,4R)-[(4,4-Difluoro-5-(pyrrolidin-1-yl))pent-2-yl 2-((6-bromopyridin-3-yl)carbamoyl)spiro[bicyclo[2.2.1]heptane-7,1′-cyclopropane]-3-carboxylate]] |
| 289 | O=C(OC1CNC1)[C@H]1[C@H](C(=O)Nc2ccc(Br)nc2)[C@@H]2CC[C@H]1C21CC1 [Example 24, (1S,2R,3R,4R)-[Azetidin-3-yl 2-((6-bromopyridin-3-yl)carbamoyl)spiro[bicyclo[2.2.1]heptane-7,1′-cyclopropane]-3-carboxylate]hydrochloride] |
| 105 | Cc1cc(CNC(=O)[C@H]2[C@H](C(=O)O[C@@H]3CCNC3)[C@H]3CC[C@@H]2C32CC2)no1 [Example 19, (1S,2R,3R,4R)-[(R)-Pyrrolidin-3-yl 2-(((5-methylisoxazol-3-yl)methyl)carbamoyl)spiro[bicyclo[2.2.1]heptane-7,1′-cyclopropane]-3-carboxylate]hydrochloride] |
| 2.2 | O=C(OCCOCCN1CCCC1)[C@H]1[C@H](C(=O)Nc2ccc(Br)nc2)[C@@H]2CC[C@H]1C21CC1 [Example 31, (1S,2R,3R,4R)-[2-(2-(Pyrrolidin-1-yl)ethoxy)ethyl 2-((6-bromopyridin-3-yl)carbamoyl)spiro[bicyclo[2.2.1]heptane-7,1′-cyclopropane]-3-carboxylate]] |
| 3.7 | Cc1cc(CNC(=O)[C@H]2[C@H](C(=O)OCC[C@H]3CCNC[C@H]3F)[C@H]3CC[C@@H]2C32CC2)on1 (relative stereo) [Example 39, (1S,2R,3R,4R)-[2-(cis-3-Fluoro-piperidin-4-yl)ethyl 2-(((3-methylisoxazol-5-yl)methyl)carbamoyl)spiro[bicyclo[2.2.1]heptane-7,1′-cyclopropane]-3-carboxylate]] |
| 34.6 | Cc1cc(CNC(=O)[C@H]2[C@H](C(=O)OC3CCN(C)C3)[C@H]3CC[C@@H]2C32CC2)no1 (stereo partly drawn) [Example 15, (1S,2R,3R,4R)-[1-Methylpyrrolidin-3-yl 2-(((5-methylisoxazol-3-yl)methyl)carbamoyl)spiro[bicyclo[2.2.1]heptane-7,1′-cyclopropane]-3-carboxylate]] |
| 9.3 | NCc1cccc(COC(=O)[C@H]2[C@H](C(=O)Nc3ccc(Br)nc3)[C@@H]3CC[C@H]2C32CC2)c1 [Example 45, (1S,2R,3R,4R)-[3-(Aminomethyl)benzyl 2-((6-bromopyridin-3-yl)carbamoyl)spiro[bicyclo[2.2.1]heptane-7,1′-cyclopropane]-3-carboxylate]] |
| 1.4 | O=C(OCCN1CCNCC1)[C@H]1[C@H](C(=O)Nc2ccc(Br)nc2)[C@@H]2CC[C@H]1C21CC1 [Example 37, (1S,2R,3R,4R)-[2-(piperazin-1-yl)ethyl 2-((6-bromopyridin-3-yl)carbamoyl)spiro[bicyclo[2.2.1]heptane-7,1′-cyclopropane]-3-carboxylate]dihydrochloride] |
| 25.8 | CN1CCC(OC(=O)[C@H]2[C@H](C(=O)Nc3ccc(Br)nc3)[C@@H]3CC[C@H]2C32CC2)C1 (stereo partly drawn) [Example 14, (1S,2R,3R,4R)-[1-Methylpyrrolidin-3-yl 2-((6-bromopyridin-3-yl)carbamoyl)spiro[bicyclo[2.2.1]heptane-7,1′-cyclopropane]-3-carboxylate]] |
| 10.4 | Cc1cc(CNC(=O)[C@H]2[C@H](C(=O)OCCC3(F)CCNCC3)[C@H]3CC[C@@H]2C32CC2)on1 [Example 49, (1S,2R,3R,4R)-[2-(4-Fluoro-piperidin-4-yl)ethyl 2-(((3-methylisoxazol-5-yl)methyl)carbamoyl)spiro[bicyclo[2.2.1]heptane-7,1′-cyclopropane]-3-carboxylate]] |
| 8.1 | O=C(Nc1ccc(Br)nc1)C1C(C(=O)OCC2CCNCC2)C2CCC1C21CC1 [Example 1, (1S,2R,3R,4R)-[Piperidin-4-ylmethyl 2-((6-bromopyridin-3-yl)carbamoyl)spiro[bicyclo[2.2.1]heptane-7,1′-cyclopropane]-3-carboxylate]] |
| 41.4 | Cc1cc(CNC(=O)[C@H]2[C@H](C(=O)OCC3(F)CCNCC3)[C@H]3CC[C@@H]2C32CC2)no1 [Example 59, (1S,2R,3R,4R)-[(4-Fluoro-piperidin-4-yl)methyl 2-(((5-methylisoxazol-3-yl)methyl)carbamoyl)spiro[bicyclo[2.2.1]heptane-7,1′-cyclopropane]-3-carboxylate]] |
| 3.1 | O=C(OCCC1CCCNC1)[C@H]1[C@H](C(=O)Nc2ccc(Br)nc2)[C@@H]2CC[C@H]1C21CC1 (stereo partly drawn) [Example 10, (1S,2R,3R,4R)-[2-(Piperidin-3-yl)ethyl 2-((6-bromopyridin-3-yl)carbamoyl)spiro[bicyclo[2.2.1]heptane-7,1′-cyclopropane]-3-carboxylate]hydrochloride] |
